Laboratory results published in the PolyMetriX glass transition set.
± gives the standard deviation of the reports.

glass transition temperature	SMILES
-30.00 ± 4.2 °C	*c1cc(CCCCCCCCCC)c(*)s1 (repeat unit)
-6.00 °C	*CCCOC(=O)C1CCC(C(=O)O*)CC1 (repeat unit)
99.00 °C	*CC(*)(C)C(=O)Oc1ccc(C(=O)Oc2ccccc2)cc1 (repeat unit)
-27.00 °C	*CC(*)c1ccc([Si](C)(C)O[Si](C)(C)O[Si](C)(C)C)cc1 (repeat unit)
226.00 °C	*Cc1cc2cc(C(=O)Nc3ccc(Oc4ccc(NC(=O)c5cc6cc(*)c(OC(=O)COc7ccc8ccc(=O)oc8c7)cc6oc5=O)cc4)cc3)c(=O)oc2cc1OC(=O)COc1ccc2ccc(=O)oc2c1 (repeat unit)
369.00 °C	*C(=O)Nc1ccc(Oc2ccc(NC(=O)c3ccc4c(c3)C(=O)N(c3ccc(Oc5ccc(N6C(=O)c7ccc(*)cc7C6=O)cc5-c5ccccc5)c(-c5ccccc5)c3)C4=O)cc2-c2ccccc2)c(-c2ccccc2)c1 (repeat unit)
145.00 °C	*Oc1ccc2cc(OC(=O)c3ccc(Oc4ccc(C(*)=O)cc4)cc3)ccc2c1 (repeat unit)
97.00 °C	*Oc1ccc(OC(=O)Oc2ccc(C(C)(C)c3ccc(OC(*)=O)cc3)cc2)cc1 (repeat unit)
49.00 °C	*CCCCCCCCCCOc1c(OC)cc(/C=C2\CCC/C(=C\c3cc(OC)c(O*)c(OC)c3)C2=O)cc1OC (repeat unit)
229.00 °C	*Oc1c(C)cc(C2(c3cc(C)c(Oc4ccc(C(=O)c5cccc(C(=O)c6ccc(*)cc6)c5)cc4)c(C)c3)c3ccccc3-c3ccccc32)cc1C (repeat unit)
246.00 °C	*C(=O)Oc1ccc2ccc(OC(=O)c3ccc4c(c3)C(=O)N(c3ccc(Oc5ccc(N6C(=O)c7ccc(*)cc7C6=O)cc5)cc3)C4=O)cc2c1 (repeat unit)
94.50 °C	*CCCCCCCCCCn1c2ccccc2c2cc(/C=C(\C#N)C(=O)OCCCCCCOC(=O)/C(C#N)=C/c3ccc4c(c3)c3ccccc3n4*)ccc21 (repeat unit)
13.00 °C	*CCCCCCOC(=O)c1ccc(C(=O)O*)cc1 (repeat unit)
374.00 °C	*Oc1ccc(S(=O)(=O)c2ccc(Oc3ccc4c(=O)n5c6cc(Oc7ccc8c(c7)nc7c9ccc(*)c%10cccc(c(=O)n87)c%109)ccc6nc5c5cccc3c45)cc2)cc1 (repeat unit)
94.30 °C	*OC1CCC(OC(=O)c2ccc(C(*)=O)cc2)CC1 (repeat unit)
396.50 °C	*Oc1cccc(Oc2ccc3c(=O)n4c5cc(-c6ccc7c(c6)nc6c8ccc(*)c9cccc(c(=O)n76)c98)ccc5nc4c4cccc2c34)c1 (repeat unit)
287.00 °C	*c1ccc(-c2ccc(C3(*)CCCCC3)cc2)cc1 (repeat unit)
57.00 °C	*CC(*)(C)C(=O)OCCCCCCOc1ccc(OC(=O)c2ccc(-c3ccc(OC)cc3)cc2)cc1 (repeat unit)
98.00 °C	*CCN(CCOC(=O)Nc1ccc(C)c(NC(=O)O*)c1)c1ccc([N+](=O)[O-])cc1C (repeat unit)
40.00 °C	*Oc1ccccc1C(=O)OC(=O)c1ccccc1OC(=O)CCCCCC(*)=O (repeat unit)
150.00 °C	*Oc1ccc(C(C)(CCC#N)c2ccc(OC(*)=O)cc2)cc1 (repeat unit)
130.00 °C	*CC(c1ccccc1)C1C(=O)N(CCCOc2ccc(-c3ccc(C#N)cc3)cc2)C(=O)C1* (repeat unit)
55.00 °C	*CC(*)(C)C(=O)OCCCCCCCCCCOc1ccc(/N=N/c2ccc([N+](=O)[O-])cc2)cc1 (repeat unit)
269.00 °C	*c1cccc(N2C(=O)c3cccc(Oc4c(C)cc(Cc5cc(C)c(Oc6cccc7c6C(=O)N(*)C7=O)c(C)c5)cc4C)c3C2=O)c1 (repeat unit)
60.00 °C	*CC(*)(C)C(=O)OCCCCCCN1CCN(c2ccc(/N=N/c3ccc([N+](=O)[O-])cc3)cc2)CC1 (repeat unit)

glass transition temperature	SMILES
72.00 °C	*/C(C#N)=C/c1cc(OCC(CC)CCCC)c(/C=C(\C#N)c2ccc3c4ccc(*)cc4n(CC(CC)CCCC)c3c2)cc1OCC(CC)CCCC (repeat unit)
277.00 °C	*c1ccc2c(c1)C(=O)N(c1ccc(Oc3cc(C(C)(C)C)c(Oc4ccc(N5C(=O)c6ccc(C(*)(C(F)(F)F)C(F)(F)F)cc6C5=O)cc4)cc3C(C)(C)C)cc1)C2=O (repeat unit)
157.00 °C	*=Nc1ccc(/N=C(/C=C/C(=*)c2ccccc2)c2ccccc2)cc1 (repeat unit)
23.00 °C	*CC(*)(C)C(=O)OCCC(F)(F)C(F)(F)C(F)(F)C(F)(F)F (repeat unit)
199.00 °C	*c1ccc2c(c1)C(=O)N(c1cc(C(c3ccc(OCCN(CC)c4ccc(/N=N/c5ccc([N+](=O)[O-])cc5)cc4)c(N4C(=O)c5ccc(C(*)(C(F)(F)F)C(F)(F)F)cc5C4=O)c3)(C(F)(F)F)C(F)(F)F)ccc1OCCN(CC)c1ccc(/N=N/c3ccc([N+](=O)[O-])cc3)cc1)C2=O (repeat unit)
251.00 °C	*c1ccc(Oc2ccc(C(=O)c3cccc(C(=O)c4ccc(Oc5ccc(-c6c7c(c(*)c8ccccc68)C(=O)N(C)C7=O)cc5)cc4)c3)cc2)cc1 (repeat unit)
-31.00 °C	*CC(COC(=O)CCCCCCCCCCN1C(=O)C2C3C=CC(C3)C2C1=O)O* (repeat unit)
154.00 °C	*CCOC(=O)c1ccc(C2(C)CC(C)(C)c3ccc(C(=O)O*)cc32)cc1 (repeat unit)
-45.00 °C	*CC(*)C(=O)OCCOCC(F)(F)C(F)(F)C(F)(F)F (repeat unit)
186.00 °C	*c1ccc2c(c1)C(=O)N(c1ccc(Oc3ccc(N4C(=O)c5ccc(C(F)(F)C(F)(F)C(F)(F)C(F)(F)C(F)(F)C(F)(F)C(F)(F)C(*)(F)F)cc5C4=O)cc3)cc1)C2=O (repeat unit)
84.00 °C	*Oc1c(C)cc(C(C)(C)c2cc(C)c(OC(=O)CCCCCC(*)=O)c(C)c2)cc1C (repeat unit)
148.00 °C	*C(=O)c1cccc(C(=O)N(*)c2ccccc2)c1 (repeat unit)
35.00 °C	*c1ccc(OCCCCCCCCCCCOC(=O)c2ccc(C(=O)OCCCCCCCCCCCOc3cccc(-c4nnc(*)s4)c3)cc2)cc1 (repeat unit)
23.50 °C	*CC(F)(F)C(F)(F)C(F)(F)COC(=O)c1cccc(C(=O)O*)c1 (repeat unit)
25.00 °C	*O[Si](*)(C)CCCCCCCCCCC(=O)Oc1ccc(C(=O)OCCOc2ccc(C(=O)OC3CCC4(C)C(=CCC5C4CCC4(C)C(C(C)CCCC(C)C)CCC54)C3)cc2)cc1 (repeat unit)
30.00 °C	*OC1CCC(OC(=O)OCCCCOC(*)=O)CC1 (repeat unit)
297.00 °C	*c1ccc2c(c1)C(=O)N(c1ccc(Cc3ccc(N4C(=O)c5ccc(C(*)(C(F)(F)F)C(F)(F)F)cc5C4=O)cc3)cc1)C2=O (repeat unit)
190.00 °C	*/C(C#N)=C/c1cc(OCCCCCCCCCCCCCCCC)c(/C=C(\C#N)c2cc(OCCCCCCCCCCCCCCCC)c(*)cc2OC)cc1OC (repeat unit)
245.00 °C	*c1ccc(Oc2ccc(NC(=O)c3ccc(C(=O)Nc4ccc(Oc5ccc(-c6nnc(*)o6)cc5)cc4)c(Oc4ccccc4)c3)cc2)cc1 (repeat unit)
15.00 °C	*O[Si](*)(C)CCCOc1ccc(C(=O)Oc2ccc(OCCCCCC)cc2)cc1 (repeat unit)
52.00 °C	*CCCCCNC(=O)CCCCCCCCCCCCCCCCCCC(=O)N* (repeat unit)
45.00 °C	*CC(*)C(=O)OCCOc1ccc(C(=O)Oc2ccc(OC(=O)c3ccc(OCCCC)cc3)cc2)cc1 (repeat unit)
147.00 °C	*CCN(CCOC(=O)c1cccc(C(=O)O*)c1)c1ccc(/N=N/c2ccc(-c3nc4ccc([N+](=O)[O-])cc4n3CC)cc2)cc1 (repeat unit)
89.00 °C	*CCCCCCCCCCCN1C(=O)c2ccc(-c3ccc(-c4ccc5c(c4)C(=O)N(*)C5=O)cc3)cc2C1=O (repeat unit)
344.00 °C	*c1ccc2c(c1)C(=O)N(c1ccc(C(=O)Nc3ccc(C(c4ccc(NC(=O)c5ccc(N6C(=O)c7ccc(C(*)(C(F)(F)F)C(F)(F)F)cc7C6=O)c(C)c5)cc4)(C(F)(F)F)C(F)(F)F)cc3)cc1C)C2=O (repeat unit)

SMILES	glass transition temperature
*CC(*)c1c(Cl)cccc1Cl (repeat unit)	165.00 °C
*CC(C)(CCC)C(=O)O* (repeat unit)	1.90 °C
*C(=O)NC1CCCC(*)O1 (repeat unit)	145.00 °C
*CC(CC)S* (repeat unit)	-47.00 °C
*CC(O*)c1ccco1 (repeat unit)	12.50 °C
*CC(*)(F)C(=O)OC (repeat unit)	142.00 °C
*N=P(*)(CC)c1ccccc1 (repeat unit)	20.00 °C
*/C(Cl)=C(/*)CCCC (repeat unit)	190.00 °C
*CC* (repeat unit) [Poly(ethylene)]	-54.00 ± 89 °C
*CC(*)c1ccccc1C(=O)OCC (repeat unit)	118.00 °C
*/C=C/C1CC(*)C(C#N)(CC)C1 (repeat unit)	134.00 °C
*c1ccc(Cc2ccc(N3C(=O)c4ccc(OCCN(CCOc5ccc6c(c5)C(=O)N(*)C6=O)c5ccc(/C=C/c6ccc([N+](=O)[O-])cc6)cc5)cc4C3=O)cc2)cc1 (repeat unit)	160.70 °C
*c1cccc(P(=O)(c2ccccc2)c2cccc(-n3c(=O)c4cc5c(=O)n(*)c(=O)c5c(-c5cc(C(F)(F)F)cc(C(F)(F)F)c5)c4c3=O)c2)c1 (repeat unit)	299.00 °C
*CC(*)c1ccc(OC(C)=O)cc1 (repeat unit) [poly(4-acetoxystyrene)]	121.42 ± 12 °C
*Cc1ccccc1C[Si](*)(C)C (repeat unit)	75.00 °C
*/C=C(/*)C(C)(C)C (repeat unit)	200.00 °C
